Measurements as given in patent publication US9896487B2, “Amyloidosis-inhibiting polypeptides and their use” (UNIVERSITY OF WASHINGTON THROUGH ITS CENTER FOR …, priority 2013, dated 2018).
“Also recorded” adds a separate entry of the source. Read-outs that look alike come from different tables or passages of the source. [ ]: non-standard residue; d: D form.

Legend:
[1] = test system: Aβ, IAPP and TTR amyloidosis / toxic oligomer; assay: Inhibitory activity summary: inhibition of aggregation and/or binding of toxic oligomer; format: biochemical; settings: for inhibition of aggregation (FIG. 6): Aβ, IAPP, TTR panels; for inhibitor quality compared with ldas90: FIG. 6 / FIG. 7
Protocol: In addition, FIG. 5 contains ‘control’ designs aimed at reverse engineering the α1 design, which is presented in more detail in Example 3. […] These designs are both linear and cyclic peptides designed to be hairpins.
The “control” designs were tested as general inhibitors against the Amyloid β 1-42 peptide (Aβ) (panel A), the islet amylin polypeptide (IAPP, or amylin, which is implicated in type 2 diabetes) (panel B), and transthyretin (TTR) (panel C) amyloidosis (FIG. 6). […] As described in Example 1, a Thioflavin T (ThT) fluorescence assay was used to monitor Aβ and IAPP aggregation. A Congo Red dye-binding assay was used to monitor TTR fibrillization. For inhibition against Aβ, peptides were co-incubated at 4-fold excess of Aβ at RT in neutral pH buffer containing ThT. […] For inhibition against IAPP, peptides were co-incubated at 8-fold excess of IAPP at 37° C. in neutral pH buffer containing 20 μM ThT. For inhibition against TTR, peptides were co-incubated at 10-fold excess of monomeric TTR.
The data in FIG. 6 were normalized to ThT fluorescence of the negative (uninhibited) control (black squares). Inhibition traces are ordered vertically according to sequence identity to α1 (see Table 1). Sigmoidal fits to data are included. Controls are identical throughout a single panel, and traces for inhibition samples are colored while the uninhibited aggregation profiles are in black.

[2] = target: T1, transthyretin (TTR) (Homo sapiens, UniProt P02766); assay: TTR fibrillization assay (Congo red binding); format: biochemical; settings: peptide without regard to TTR; prevents solution TTR assay
T1 construct: purchased Lee Biosolutions, St. Louis Mo; 496-11
Protocol: Aliqouts of transthyretin (TTR) (496-11; Lee Biosolutions, St. Louis Mo.) were made from a 1 mg/mL solution 20 mM ammonium carbonate, pH 8. Aliquots were lyophilized and stored at −18° C. Prior to use, TTR was dissolved to 80 μM (monomer) in acetate buffer (50 mM potassium acetate, 100 mM potassium chloride pH 4.5) and sonicated for 10 minutes. The stock solution was centrifuged before use. Peptide designs were added to stock TTR to a final TTR concentration of 40 μM (monomer) in acetate buffer (pH 4.5) in 500 μL microcentrifuge tubes, which were incubated at 37° C. Periodically, samples were collected from the TTR:peptide mixture by briefly centrifuging, and then carefully pipetting the solution up and down prior to withdrawing a 10 μL sample and diluting it in 190 μL of 10 μM Congo red in an individual well of a 96-well assay plate. Each measurement was performed in triplicate. Absorbance measurements were taken at 477 and 540 nm. Relative Congo red binding was determined using the method of Klunk et al. using the relationship: rCb=(Abs540/25,295)−(Abs477/46,306) (40). All datapoints were normalized to the value recorded for TTR alone pH 4.5 at 48 hrs.
The “control” designs were tested as general inhibitors against the Amyloid β 1-42 peptide (Aβ) (panel A), the islet amylin polypeptide (IAPP, or amylin, which is implicated in type 2 diabetes) (panel B), and transthyretin (TTR) (panel C) amyloidosis (FIG. 6). […] As described in Example 1, a Thioflavin T (ThT) fluorescence assay was used to monitor Aβ and IAPP aggregation. A Congo Red dye-binding assay was used to monitor TTR fibrillization. For inhibition against Aβ, peptides were co-incubated at 4-fold excess of Aβ at RT in neutral pH buffer containing ThT. Note that the results for α1 differ somewhat from what are included in Example 1 because the assay conditions were altered slightly to slow the process down to favor oligomerization of Aβ (rather than fibril elongation) by lowering the temperature to 25° C. […] For inhibition against IAPP, peptides were co-incubated at 8-fold excess of IAPP at 37° C. in neutral pH buffer containing 20 μM ThT. For inhibition against TTR, peptides were co-incubated at 10-fold excess of monomeric TTR.

[3] = test system: toxic oligomer; assay: Binding of toxic oligomer by peptide immobilized to agarose beads (Examples 2 and 3)
Protocol: Peptide designs were immobilized to the Pierce Amino Link resin following the manufacturer's instructions. Peptides were immobilized in a volume of 200 μL of coupling buffer (100 mM sodium phosphate, 150 mM sodium chloride, pH 7.2) and 2 μL cyanoborohydride solution (5 M sodium cyanoborohydride in 1 M NaOH) at a concentration of 358 μM overnight at 4° C. Any residual active sites were blocked with 400 μL quenching buffer (1 M tris hydrochloride, pH 7.4) and 4 μL cyanoborohydride solution for 4 hours at 25° C. Binding experiments were performed from 200 μL amyloid solution (5 μM Aβ or 20 μM TTR (monomer) diluted to the desired concentration in coupling buffer), which was allowed to bind to the peptide-bound agarose beads for 2 h at 25° C. The solution was then collected by centrifugation (flow through, FT). The beads were resuspended in 300 μL coupling buffer, vortexed to obtain an uniform slurry, and the solution was again collected by centrifugation (wash 1, W1). The wash step was performed an additional five times (W2-W6). One final wash step was performed but after resuspending the resin, the solution was allowed to sit for 5 minutes before centrifugation (W7). The resin was next resuspended in 100 μL 2M guanidine hydrochloride, incubated for 5 minutes at room temperature, then collected as before. This was performed twice (E1-E2). The resin was washed again with 300 μL coupling buffer (W8) followed by two elution steps with 6M guanidine hydrochloride (E3-E4). One final wash step was performed with 300 μL coupling buffer (W9). All collected eluents were analyzed by applying triplicate 1 μL spots to nitrocellulose, and then performing standard dot blot analysis as described by Kayed et al. (9) with an anti-TTR (sc-13098, Santa Cruz Biotechnology, Santa Cruz, Calif.) or anti-Aβ (ab39377; Abeam Inc, Cambridge, Mass.) primary antibody diluted 1:1.000 in 5% or 10% nonfat milk, respectively.
Three α-sheet designs are addressed in Example 1, but many more have been evaluated using these same assays and structural methods. FIG. 5 contains a list of other designed α-sheet peptides, both linear and cyclic (specifically peptides #3-5 and #8-9), as well as other control, non-α-sheet designs (peptides #17-18, 20). In addition, FIG. 5 contains ‘control’ designs aimed at reverse engineering the α1 design, which is presented in more detail in Example 3. […] Random primary sequences of amino acids are active in the polypeptides of the invention; these same primary sequences are not active if the polypeptide is provided in an entirely L-amino acid peptide or if the L/D amino acids are randomly distributed within the polypeptide such that they are not alternating (i.e. if they are not polypeptides according to the invention). […] They also all inhibit aggregation and/or bind the toxic oligomer. Some of the polypeptides are insoluble and the solution assay can't be performed, but they do bind the targeted toxic oligomer when they are immobilized to agarose beads to promote solubilization. • Thus, this provides further evidence that the primary amino acid sequence per se is not determining structure and activity, the L/D patterning is. However, the sequence modulates the activity and solubility properties. • Both cyclic and linear designs with different sequences form α-sheet polypeptides, inhibit aggregation, and bind the toxic oligomer. […] (See peptides #1 and #7.) Note, however, that the charges can modulate the level of activity. • Next, consider all 14 designed peptides with the L/D turn template, they are all active. Some have issues with solubility but they all form α-sheet and are active amyloid inhibitors in solution and/or binding of the toxic oligomer. These designs are both linear and cyclic peptides designed to be hairpins. The sequence identity relative to ldas90 (peptide #1) ranges from 9-91% across these 14 designs with an average of 43%. […]

| Substance | Inhibits Aggregation and/or binds oligomer? [1] | inhibition of aggregation (FIG. 6) [1] | Congo red binding by the peptide itself [2] | binds toxic oligomer when immobilized [3] | also measured |
| --- | --- | --- | --- | --- | --- |
| Ac-AQQiEcItNVWDKEItMyFnVSE-NH2 (Ac-AQQ[dI]E[dC]L[dT]NVWDKEL[dT]M[dY]F[dN]VSE-NH2; not fully specified) [peptide #11] | yes | weak | bind Congo Red | do bind toxic oligomer | Inhibits Aggregation and/or binds oligomer? ([1]; listed as Control 3): active |
| Ac-MNWESkGEwIRMRYGtmLSNGnM-NH2 (Ac-MNWES[dK]GE[dW]LRMRYG[dT][dM]LSNG[dN]M-NH2; SMILES CSCC[C@H](NC(=O)[C@@H](CC(N)=O)NC(=O)CNC(=O)[C@H](CC(N)=O)NC(=O)[C@H](CO)NC(=O)[C@H](CC(C)C)NC(=O)[C@@H](CCSC)NC(=O)[C@H](NC(=O)CNC(=O)[C@H](Cc1ccc(O)cc1)NC(=O)[C@H](CCCNC(=N)N)NC(=O)[C@H](CCSC)NC(=O)[C@H](CCCNC(=N)N)NC(=O)[C@H](CC(C)C)NC(=O)[C@@H](Cc1c[nH]c2ccccc12)NC(=O)[C@H](CCC(=O)O)NC(=O)CNC(=O)[C@@H](CCCCN)NC(=O)[C@H](CO)NC(=O)[C@H](CCC(=O)O)NC(=O)[C@H](Cc1c[nH]c2ccccc12)NC(=O)[C@H](CC(N)=O)NC(=O)[C@H](CCSC)NC(C)=O)[C@H](C)O)C(N)=O) [peptide #19] | no |  | bind Congo Red | does not | Inhibits Aggregation and/or binds oligomer? ([1]; listed as Control2): inactive |
| Ac-RGEMNLSWMNEYSGWTMNLKMGR-NH2 (not fully specified (residues 4, 6, 8, 16, 18, 20); printed as Ac-RGEMNLSWMNEYSGWTMNLKMGR-NH2) [peptide #20, all L-amino acid version of ldas90] | no |  |  |  | Inhibits Aggregation and/or binds oligomer? ([1]; listed as llas90): inactive |
| Ac-RGEaWmYiKNNLSETmMsNmWGR-NH2 [peptide #12] | yes | inhibits aggregation | bind Congo Red |  | Inhibits Aggregation and/or binds oligomer? ([1]; listed as Control6): active; binds toxic oligomer when immobilized ([3]; listed as Control 6): do bind toxic oligomer; binds toxic oligomer when immobilized ([3]; listed as Control6): binds the toxic oligomer |
| Ac-RGNwNeSkMNEYSGWmLmLtMGR-NH2 (Ac-RGN[dW]N[dE]S[dK]MNEYSGW[dM]L[dM]L[dT]MGR-NH2; SMILES CSCC[C@H](NC(=O)[C@@H](CCCCN)NC(=O)[C@H](CO)NC(=O)[C@@H](CCC(=O)O)NC(=O)[C@H](CC(N)=O)NC(=O)[C@@H](Cc1c[nH]c2ccccc12)NC(=O)[C@H](CC(N)=O)NC(=O)CNC(=O)[C@H](CCCNC(=N)N)NC(C)=O)C(=O)N[C@@H](CC(N)=O)C(=O)N[C@@H](CCC(=O)O)C(=O)N[C@@H](Cc1ccc(O)cc1)C(=O)N[C@@H](CO)C(=O)NCC(=O)N[C@@H](Cc1c[nH]c2ccccc12)C(=O)N[C@H](CCSC)C(=O)N[C@@H](CC(C)C)C(=O)N[C@H](CCSC)C(=O)N[C@@H](CC(C)C)C(=O)N[C@@H](C(=O)N[C@@H](CCSC)C(=O)NCC(=O)N[C@@H](CCCNC(=N)N)C(N)=O)[C@H](C)O) [peptide #6] | yes | good inhibitor |  | binds the toxic oligomer | inhibitor quality compared with ldas90 [1]: as good as ldas90 (peptide #1) with capped ends; also recorded: better than ldas90 with charged ends (peptide #7); inhibitor quality compared with ldas90 ([1]; listed as Control5): as active; Inhibits Aggregation and/or binds oligomer? ([1]; listed as Control5): active |
| Ac-WRPwAiDgMNTBKQRkAsVyLQP-NH2 [peptide #13] | yes |  | bind Congo Red | do bind toxic oligomer | Inhibits Aggregation and/or binds oligomer? ([1]; listed as Control 4): active |
| RGEmNlSwMNEYSGWtMnLkMGR [peptide #7] | demonstrate activity |  |  |  |  |
